Test results as given in patent US20240000707A1, “INHALABLE DRY POWDER FORMULATIONS COMPRISING ANGIOGENESIS INHIBITORS” (Lonza Bend Inc., priority 2020, published 2024).

Tested on: NSCLC cell line Calu-3
Experiment: Orthotopic nude rat model for lung cancer, inhaled vs IP bevacizumab, primary and maintenance treatment
Assay type: in vivo
Settings: week 8; INH 1.5 mg/kg deposited vs IP 15 mg/kg; cisplatin IP 3 mg/kg
Protocol: NSCLC cell line Calu-3 was instilled into the lungs of X-irradiated rats by an intratracheal route, targeting […] cells per installation. For the first four weeks of the study, no treatment was administered, allowing growth of the tumor cells. Inhaled bevacizumab SDD was evaluated as a primary treatment as well as a maintenance therapy.
Cisplatin was administered by IP at 3 mg/kg. Powder was aerosolized using a rotating brush generator and delivered to the rats passively through nasal inhalation. […] Groups 1-4 were evaluated for primary efficacy after 8 weeks with lung weight as the end point. Groups 5-7 were evaluated for maintenance efficacy after 12 weeks with lung weight and survival as the end point.

With Bevacizumab [IP bevacizumab] the “tumor burden, co-administered with cisplatin, inhaled vs IP bevacizumab” value was “indistinguishable, and significantly lower than group 1 and 3”.
